In US5684003A, “5-HT4 receptor agonists” (Nisshin Flour Milling Co., Ltd., priority 1994, dated 1997):
Like-named read-outs stand apart in the source and are kept apart here.

Tests used:
5-HT3 receptor = target: T1, 5-HT3 receptor (Rattus norvegicus, UniProt P35563); test: 5-HT3 receptor antagonist activity: inhibition of 2-Me-5-HT-induced reduction in heart rate in anesthetized rats; format: in vivo; conditions: iv (jugular vein) 5 minutes before 2-Me-5-HT 0.1 mg/kg, read-out: IC50 (the source's name)
T1 construct: from tissue; host or cells: whole anesthetized rat (in vivo); endogenous receptor
T1 sequence (P35563 24-483): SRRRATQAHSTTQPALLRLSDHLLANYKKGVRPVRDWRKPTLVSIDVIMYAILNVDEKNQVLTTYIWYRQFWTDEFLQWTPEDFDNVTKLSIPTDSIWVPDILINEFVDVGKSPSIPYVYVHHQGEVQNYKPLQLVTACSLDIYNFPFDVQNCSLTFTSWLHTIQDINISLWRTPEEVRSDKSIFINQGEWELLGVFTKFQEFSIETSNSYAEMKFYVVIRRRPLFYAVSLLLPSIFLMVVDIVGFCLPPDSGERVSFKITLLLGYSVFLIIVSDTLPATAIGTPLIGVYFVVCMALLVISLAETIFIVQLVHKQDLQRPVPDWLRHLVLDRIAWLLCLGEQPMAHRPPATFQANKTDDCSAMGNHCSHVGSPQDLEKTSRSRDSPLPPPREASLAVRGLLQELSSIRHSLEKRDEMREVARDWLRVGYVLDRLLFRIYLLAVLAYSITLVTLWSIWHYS
Description: For the purpose of studying a receptor selectivity of the present compounds, the 5-HT3 receptor antagonist activity was tested in the following manner. Rats were anesthetized with urethane and heart rate was recorded through femoral artery. The 5-HT3 selective agonist, 2-methyl-5-hydroxytryptamine (2-Me-5-HT) was administered at 0.1 mg/kg through carotid arteries and transient reduction in heart rate was recorded. The test. compounds were administered through jugular vein at 5 minutes before the administration of 2-Me-5-HT, inhibitory rate of reduction in heart rate by the administration of 2-Me-5-HT was calculated and IC50 value was calculated from the inhibitory rate.

5-HT4 receptors = target: T2, 5-HT4 receptors (Rattus norvegicus, UniProt Q62758); test: Relaxation of carbachol-contracted rat oesophageal tunica muscularis mucosae; format: cell-based
T2 construct: from tissue; host or cells: rat oesophageal tunica muscularis mucosae
T2 sequence (Q62758 whole entry): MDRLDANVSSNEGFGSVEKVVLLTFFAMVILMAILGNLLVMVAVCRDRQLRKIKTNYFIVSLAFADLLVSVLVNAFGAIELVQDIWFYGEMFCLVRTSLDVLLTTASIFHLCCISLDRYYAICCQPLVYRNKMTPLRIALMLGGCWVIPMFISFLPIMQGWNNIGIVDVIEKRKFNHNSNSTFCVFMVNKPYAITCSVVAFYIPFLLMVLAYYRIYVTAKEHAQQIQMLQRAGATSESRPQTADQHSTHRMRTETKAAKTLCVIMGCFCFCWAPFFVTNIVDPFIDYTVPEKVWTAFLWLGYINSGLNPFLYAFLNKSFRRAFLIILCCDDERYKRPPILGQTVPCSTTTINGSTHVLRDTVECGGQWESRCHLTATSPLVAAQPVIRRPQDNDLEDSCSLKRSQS
Description: The agonistic activity of oxazabicyclo derivatives and Mosapride on 5-HT4 receptors was determined by the procedure mentioned in Naunyn-Schmiedeberg's Arch Pharmacol (1991) 343:439-446.
The rat oesophageal tunica muscularis mucosae were suspended in organ both containing Krebs-Henseleit solution aerated with a mixed gas (95% O2, 5% CO2) and contracted with carbachol (1×10^-6 M). After the contraction was stabilized, the cumulative administration of the compounds was performed to determine the relaxation of the rat oesophagus pre-contracted with carbachol. The concentration (ED50) to cause 50% relaxation of the carbachol-induced contraction was measured. The result is expressed in terms of -log ED50 and shown in the following table in which higher numerical value indicates higher activity.

[1] = Chromosomal aberration test
[2] = Reverse mutation test (Ames test)
Micronucleus test = test: Micronucleus test
From the text: (§1) The compound of Example 5 was repeatedly administered orally to rats (male, female) over the period of 2 weeks to perform a toxicological investigation.

gastric motility = test: Gastric motility after meal in beagle dogs (force transducer, Motility Index); format: in vivo, dog (beagle); conditions: 60 min after feeding, percentage to MI at 15 minutes before administration
Description: The present compounds were investigated for the gastrointestinal motility activity by the following procedure, by which the gastrointestinal prokinetic action was confirmed.
Beagle dogs inserted with a forced transducer at the anterior wall of stomach were used after a convelescence period of more than one month.
Dogs fasted overnight were given a food (375 g of a dog food) and gastric motility after meal was determined. After 60 minutes of the feeding, the test compounds were intravenously injected and the promoting action on gastric motility after meal was determined. The area under contracting wave forms of gastric motility (Motility Index: MI) was calculated and expressed in terms of percentage to the MI at 15 minutes before the administration of the test compound.

5-HT4 receptor = 5-HT4 receptor (Cavia porcellus, UniProt O70528); test: Increase in contraction height of electrically stimulated longitudinal muscle of isolated guinea pig ileum (LMMP); format: cell-based; parameters: key: +: indicates the increase in the contraction height; -: indicates no effect; conditions: test concentration 10^-7 M
5-HT4 receptor, sequence (O70528 whole entry): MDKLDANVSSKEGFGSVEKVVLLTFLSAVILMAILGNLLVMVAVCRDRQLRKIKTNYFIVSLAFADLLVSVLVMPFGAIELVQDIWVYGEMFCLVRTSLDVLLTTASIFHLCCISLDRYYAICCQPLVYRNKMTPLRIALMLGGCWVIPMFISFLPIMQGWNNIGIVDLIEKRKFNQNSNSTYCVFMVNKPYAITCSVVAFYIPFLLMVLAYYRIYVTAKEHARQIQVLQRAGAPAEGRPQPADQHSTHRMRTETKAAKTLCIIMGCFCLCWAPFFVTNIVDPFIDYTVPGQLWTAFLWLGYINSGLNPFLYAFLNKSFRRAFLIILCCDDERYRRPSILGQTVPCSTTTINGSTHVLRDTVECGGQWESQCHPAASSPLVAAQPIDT
From the text: Ileum was excised from guinea pigs to prepare longitudinal muscle samples with approximately 2 cm length. The sample was suspended in Krebs-Henseleit liquid bath supplied with a mixed gas (95% O2, 5% CO2) and subjected to electrical stimulation (1 msec, 0.1 Hz) to record contraction force isometrically. The test compounds were. dissolved in distilled water or DMSO and tested at a concentration of 10^-7 M (but 10^-6 M for Compound 11). The results are shown by the presence or absence of the increase in the contraction height by electrical stimulation before administration of the compound, wherein the symbol "+" indicates the increase in the contraction height, while "-" indicates no effect.
Whether or not the action of the above compounds is that via activation of 5-HT4 receptors was investigated using as 5-HT4 receptor antagonist, SDZ 205-557 (2-methoxy-4-amino-5-chlorobenzoic acid 2-(diethylamino)ethyl ester) described in Naunyn-Schmiedeberg's Arch Pharmacol (1992) 345:387-393. Thus, the investigation as to whether SDZ 205-557 can antagonize the increase in the contraction height of the above compounds using the longitudinal muscle preparation of the isolated guinea pig ileum can reveal that such increase in the contraction height is the action via activation of 5-HT4 receptors.

[3] = Two-week repeated oral toxicological investigation in rats; format: in vivo, rat; conditions: rats (male, female), 2 weeks, dose figure missing ("a dose of mg/kg")
From the text: as §1

gastric-emptying = test: Gastric-emptying promoting action (semi-solid test meal, fasted rats); format: in vivo, rat; conditions: relative to distilled water group (C/D×100)
Description: The present compounds were evaluated for the gastrointestinal prokinetic action, employing as an index the gastric-emptying promoting action. Fasted rats were orally given the test compound or distilled water. After 60 minutes, 3 ml of a test meal (a semi-solid food) was given into stomach by means of a probe. After 60 minutes, animals were sacrificed and stomach was excised and weighed. After washing out the gastric content, the stomach was again weighed to calculate the gastric content amount. The results were shown in the following table by calculating the gastric emptying rate (C) from the weight of the test meal given (A) and the weight of the test meal retained in the stomach (B), and expressing in terms of the gastric-emptying promoting rate to the gastric-emptying rate of the distilled water-given group(D).
Gastric-emptying rate(C)=(A-B)/A×100
Gastric-emptying promoting rate=C/D×100

Structure (SMILES) | ED50 (5-HT3 receptor) | EC50 (5-HT4 receptors) | chromosomal aberration test [1] | reverse mutation test (Ames test) [2] | mutagenicity ([2]; overall from Ames, chromosomal aberration and micronucleus tests) | micronucleus test (Micronucleus test) | MI (Motility Index) (gastric motility; 0.03 mg/kg iv) | MI (Motility Index) (gastric motility; 0.1 mg/kg iv) | MI (Motility Index) (gastric motility; 0.3 mg/kg iv) | LMMP: presence or absence of the increase in the contraction height by electrical stimulation (5-HT4 receptor) | toxicological changes [3] | Gastric-emptying promoting rate (gastric-emptying; 0.03 mg/kg oral) | Gastric-emptying promoting rate (gastric-emptying; 0.1 mg/kg oral) | Gastric-emptying promoting rate (gastric-emptying; 0.3 mg/kg oral) | EC50 (5-HT4 receptors; ED50 = concentration to cause 50% relaxation of contraction by carbachol (1×10^-6 M), cumulative administration, read-out: Activity (-log ED50) (converted)) | MI (Motility Index) (gastric motility; 1 mg/kg iv) | Gastric-emptying promoting rate (gastric-emptying; 1 mg/kg oral) | Gastric-emptying promoting rate (gastric-emptying; 3 mg/kg oral)
CCCCN1[C@@H]2COC[C@H]1C[C@@H](NC(=O)c1nn(C(C)C)c3ccccc13)C2 [Example 5, N-[endo-9-(n-Butyl)-3-oxa-9-azabicyclo[3.3.1]non-7-yl]-1-isopropyl-indazole-3-carboxamide] | 0.0427 mg/kg | 1 µM | negative | negative | no mutagenicity was observed | negative | 145.8% | 208.2% | 324.9% | + | no toxicological changes were observed | 110.7 | 124.2 | 127.5 | – | – | – | –
CCOc1cc(N)c(Cl)cc1C(=O)NCC1CN(Cc2ccc(F)cc2)CCO1 (stereo not shown) [Mosapride, reference compound] | – | – | – | – | – | – | – | – | – | – | – | – | – | 103.5 | 34.7 µM | 151.0% | 125.3 | 128.1
